In the Kinase Knowledgebase extract (Sharma et al. 2016):

Target: PIK3CA (UniProt P42336)
Assay: PI3K Inhibition

Chain of PIK3CA (P42336 whole entry, looked up): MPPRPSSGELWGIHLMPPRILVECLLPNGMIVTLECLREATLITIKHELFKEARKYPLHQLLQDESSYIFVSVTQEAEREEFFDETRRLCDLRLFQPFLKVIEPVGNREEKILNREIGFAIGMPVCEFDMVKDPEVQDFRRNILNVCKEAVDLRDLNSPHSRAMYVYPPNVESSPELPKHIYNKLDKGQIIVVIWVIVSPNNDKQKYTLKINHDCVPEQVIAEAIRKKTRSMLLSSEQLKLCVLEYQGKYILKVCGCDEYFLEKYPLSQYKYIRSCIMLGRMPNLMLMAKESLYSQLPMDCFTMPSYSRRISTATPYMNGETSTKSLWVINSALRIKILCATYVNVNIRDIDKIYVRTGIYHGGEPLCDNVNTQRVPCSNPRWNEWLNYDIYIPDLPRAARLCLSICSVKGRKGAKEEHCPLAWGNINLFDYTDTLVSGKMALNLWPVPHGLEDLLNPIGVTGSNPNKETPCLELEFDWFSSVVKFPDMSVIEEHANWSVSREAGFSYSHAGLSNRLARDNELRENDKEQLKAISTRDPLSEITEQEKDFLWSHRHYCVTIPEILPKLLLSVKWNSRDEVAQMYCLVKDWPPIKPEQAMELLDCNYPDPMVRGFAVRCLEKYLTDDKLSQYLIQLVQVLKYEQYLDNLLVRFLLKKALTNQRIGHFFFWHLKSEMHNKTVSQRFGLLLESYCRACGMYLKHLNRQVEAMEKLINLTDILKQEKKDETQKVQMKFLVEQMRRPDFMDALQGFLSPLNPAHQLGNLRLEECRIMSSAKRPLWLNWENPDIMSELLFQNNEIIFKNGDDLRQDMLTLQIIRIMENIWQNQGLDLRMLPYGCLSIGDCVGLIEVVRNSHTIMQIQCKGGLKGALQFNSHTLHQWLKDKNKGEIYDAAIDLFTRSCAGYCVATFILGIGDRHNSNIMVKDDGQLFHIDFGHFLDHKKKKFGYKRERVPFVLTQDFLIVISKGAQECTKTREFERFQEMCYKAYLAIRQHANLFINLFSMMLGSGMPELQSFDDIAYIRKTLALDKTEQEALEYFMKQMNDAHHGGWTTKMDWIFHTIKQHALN

| IC50 | Structure (SMILES) |
| --- | --- |
| 5 µM | CO[C@H]1C[C@@H](C)CC2=C(NCCCCCCCOc3ccc4c(=O)cc(N5CCOCC5)oc4c3C)C(=O)C=C(NC(=O)C(C)=CC=C[C@@H](OC)[C@H](OC(N)=O)C(C)=C[C@H](C)[C@H]1O)C2=O |
| > 500 µM | CO[C@H]1C[C@@H](C)CC2=C(NCCCOc3ccc4c(=O)cc(N5CCOCC5)oc4c3)C(=O)C=C(NC(=O)C(C)=CC=C[C@@H](OC)[C@H](OC(N)=O)C(C)=C[C@H](C)[C@H]1O)C2=O |
| 310 µM | CO[C@H]1C[C@@H](C)CC2=C(NCCCCCOc3ccc4c(=O)cc(N5CCOCC5)oc4c3)C(=O)C=C(NC(=O)C(C)=CC=C[C@@H](OC)[C@H](OC(N)=O)C(C)=C[C@H](C)[C@H]1O)C2=O |
| > 500 µM | CO[C@H]1C[C@@H](C)CC2=C(NCCCCCCOc3ccc4c(=O)cc(N5CCOCC5)oc4c3)C(=O)C=C(NC(=O)C(C)=CC=C[C@@H](OC)[C@H](OC(N)=O)C(C)=C[C@H](C)[C@H]1O)C2=O |
| 200 µM | CO[C@H]1C[C@@H](C)CC2=C(NCCCCOc3ccc4c(=O)cc(N5CCOCC5)oc4c3)C(=O)C=C(NC(=O)C(C)=CC=C[C@@H](OC)[C@H](OC(N)=O)C(C)=C[C@H](C)[C@H]1O)C2=O |
| 70 µM | CO[C@H]1C[C@@H](C)CC2=C(NCCOCCOc3ccc4c(=O)cc(N5CCOCC5)oc4c3C)C(=O)C=C(NC(=O)C(C)=CC=C[C@@H](OC)[C@H](OC(N)=O)C(C)=C[C@H](C)[C@H]1O)C2=O |
| 13.5 µM | CO[C@H]1C[C@@H](C)CC2=C(NCCCC#Cc3cccc4c(=O)cc(N5CCOCC5)oc34)C(=O)C=C(NC(=O)C(C)=CC=C[C@@H](OC)[C@H](OC(N)=O)C(C)=C[C@H](C)[C@H]1O)C2=O |
| > 500 µM | C=CCNC1=C2C[C@@H](C)C[C@H](OC)[C@H](O)[C@@H](C)C=C(C)[C@H](OC(N)=O)[C@@H](OC)C=CC=C(C)C(=O)NC(=CC1=O)C2=O |
| 3 µM | CO[C@H]1C[C@@H](C)CC2=C(NCC#Cc3cccc4c(=O)cc(N5CCOCC5)oc34)C(=O)C=C(NC(=O)C(C)=CC=C[C@@H](OC)[C@H](OC(N)=O)C(C)=C[C@H](C)[C@H]1O)C2=O |
| 85 µM | CO[C@H]1C[C@@H](C)CC2=C(NCCOCCOc3ccc4c(=O)cc(N5CCOCC5)oc4c3)C(=O)C=C(NC(=O)C(C)=CC=C[C@@H](OC)[C@H](OC(N)=O)C(C)=C[C@H](C)[C@H]1O)C2=O |
| 28 µM | CO[C@H]1C[C@@H](C)CC2=C(NCCCCCCCCOc3ccc4c(=O)cc(N5CCOCC5)oc4c3C)C(=O)C=C(NC(=O)C(C)=CC=C[C@@H](OC)[C@H](OC(N)=O)C(C)=C[C@H](C)[C@H]1O)C2=O |
